# Assays:
# Format in all cases: biochemical
# α-Amylase = assay: Determination of α-Amylase activity with reagent paper (Beispiel 21); conditions: filter paper soaked with substrate in Citratpuffer pH 6; sample with amylase plus α- and ß-Glucosidase; after a few minutes
# Text: Bestimmung der α-Amylase-Aktivität
# Filterpapier wird mit Resorufin-maltoheptaosid (hergestellt gemäß Beispiel 17), gelöst in Citratpuffer, pH 6, getränkt. Das so ernaltene Reagenzpapier wird nacheinander mit der d-Amylase enthaltenden Probe sowie mit a- und ß-Glucosidase versetzt.
# Mit Hilfe von Proben mit bekannter d-Amylase-Konzentration läßt sicn eine Eichkurve ermitteln, anhand derer der uhbekannte d-Amylase-Genalt einer Probe bestimmt werden Kann.
# ß-D-Galaktosidase = ß-D-Galaktosidase (Escherichia coli, UniProt P00722); assay: Kinetics of the enzymatic hydrolysis (Michaelis-Menten)
# Chain of ß-D-Galaktosidase (P00722 2-1024): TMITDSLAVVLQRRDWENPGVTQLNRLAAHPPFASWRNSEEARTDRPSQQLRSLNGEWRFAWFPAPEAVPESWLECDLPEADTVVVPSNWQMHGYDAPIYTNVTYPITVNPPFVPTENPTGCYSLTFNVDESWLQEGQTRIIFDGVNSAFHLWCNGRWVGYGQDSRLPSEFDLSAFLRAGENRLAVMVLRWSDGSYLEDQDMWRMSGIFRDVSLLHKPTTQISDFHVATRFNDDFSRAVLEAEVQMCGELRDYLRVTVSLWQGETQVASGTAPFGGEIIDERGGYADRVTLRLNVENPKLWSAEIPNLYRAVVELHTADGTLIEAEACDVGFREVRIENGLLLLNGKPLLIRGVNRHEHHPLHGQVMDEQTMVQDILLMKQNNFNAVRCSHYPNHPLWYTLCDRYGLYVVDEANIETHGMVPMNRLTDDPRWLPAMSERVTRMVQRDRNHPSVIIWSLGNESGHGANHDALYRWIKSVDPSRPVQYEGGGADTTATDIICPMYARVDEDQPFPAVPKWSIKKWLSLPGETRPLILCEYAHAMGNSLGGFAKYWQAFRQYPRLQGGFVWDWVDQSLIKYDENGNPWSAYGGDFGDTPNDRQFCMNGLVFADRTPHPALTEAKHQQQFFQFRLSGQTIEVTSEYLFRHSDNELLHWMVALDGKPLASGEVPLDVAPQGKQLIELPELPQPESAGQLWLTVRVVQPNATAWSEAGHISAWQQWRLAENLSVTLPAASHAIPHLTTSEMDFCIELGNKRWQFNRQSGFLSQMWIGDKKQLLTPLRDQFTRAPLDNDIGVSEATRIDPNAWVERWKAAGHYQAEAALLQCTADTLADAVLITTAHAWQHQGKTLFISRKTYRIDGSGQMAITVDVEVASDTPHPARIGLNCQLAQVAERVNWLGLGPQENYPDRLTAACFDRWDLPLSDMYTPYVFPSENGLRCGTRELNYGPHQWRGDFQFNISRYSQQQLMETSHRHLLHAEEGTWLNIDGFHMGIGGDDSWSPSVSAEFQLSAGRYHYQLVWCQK
# Text: Bei der Synthese der Glycoside der Resorufin-Derivate der allgemeinen Formel II entstehen nicht-fluoreszierende Verbindungen, aus denen durch enzymatische Spaltung mit Hilfe der entsprechenden Glycosidasen wieder die fluoreszierenden Resorufin-Derivate freigesetzt werden. Die erfindungsgemäßen fluorogenen Resorufin-nerivate besitzen im Vergleich zu den bisher bekannten Glycosiden anderer chromogener bzw. fluorogener Gruppen sehr vorteilhafte Eigenschaften. Als monosubstituierte Derivate weisen sie eine Kinetik der enzymatischen Hydrolyse auf, die sehr einfach durch die Michaelis-Menten-Beziehung beschrieben werden kann. Für das Resorufin-ß-D-galactopyranosid gilt beispielsweise eine Michaelis-Konstante KM = 0,38 mmol/1. Die Hemmung dieser Hydrolyse durch das natürliche Substrat Lactose ist kompetitiv, so daß für bestimmte Untersuchungen der spezifische Umsatz von Glycosiden der Resorufin-Derivate durch Zugabe von natürlichen Glycosiden, wie Lactose im Falle der ß-D-Galaktosidase, definiert und reversibel verändert werden kann.
# freie ß-D-Galactosidase = molecular target: T1, freie ß-D-Galactosidase (Escherichia coli, UniProt P00722); assay: Determination of the activity of free ß-D-Galactosidase, photometric at 578 nm (Beispiel 20); conditions: 0,8 mmol/l substrate, 950 ul Reagenslösung + 50 ul Enzymlösung (ca. 0,08 U/ml), 37° C
# T1 construct: purchased
# T1 sequence (P00722 2-1024): as above
# Method: (§1) Bestimmung der Aktivität freier und konjugierter ß-D-Galactosidase
# (§2) Reagenslösung: • In vorstehend beschriebener Pufferlösung werden 0,8 mmol/1 Resorufin-ß-D-galactopyranosid gelöst.
# Enzymlösung: • Handelsübliche ß-D-Galactosidase aus Escherichia coli wird in Puffer gelöst. Die Aktivität dieser Lösung beträgt ca. 0,08 U/ml (bezogen auf die Hersteller-Angaben).
# (§3) Die Messung erfolgt photometrisch bei 578 nm. 950 ul Reagenslösung werden jeweils in einer 1-cm-Küvette bei 37 °C mit 50 ul Enzymlösung bzw. mit 50 ul Enzym-Konjugat-Lösung vermischt. Als Maß für die Reaktion wird der Extinktionsanstieg pro Zeiteinheit in [mExt/min] ermittelt.
# [1] = molecular target: ß-D-Galactosidase-Antikörper-Konjugat (Escherichia coli, UniProt P00722); assay: Determination of the activity of conjugated ß-D-Galactosidase, photometric at 578 nm (Beispiel 20); conditions: 0,8 mmol/l substrate, 950 ul Reagenslösung + 50 ul Enzym-Konjugat-Lösung, 37° C
# Chain of ß-D-Galactosidase-Antikörper-Konjugat (P00722 2-1024): as above
# Text: as §1, §2
# Enzym-Konjugat-Lösung: • Verwendet wird ein ß-D-Galactosidase-Antikörper-Präparat. Die Herstellung solcher Enzym-Antikörper-Konjugate ist bekannt. Sie ist beispielsweise in Biochem. Biophys. Acta 612, 40 - 49 (1980) beschrieben. Das Präparat wird in Puffer so verdünnt, daß sich eine mit der oben beschriebenen Enzymlösung ungefähr vergleichbare Aktivität ergibt.
# as §3
# ß-D-Galactosidase [2] = molecular target: T2, ß-D-Galactosidase (Escherichia coli, UniProt P00722); assay: Detection of ß-D-Galactosidase with an indicator film / test strip (Beispiel 19); conditions: test strip containing the substrate, dipped in ß-D-Galactosidase solution; 2 Minuten bei Raumtemperatur
# T2 sequence (P00722 2-1024): as above
# Method: Nachweis von ß-D-Galactosidase mit Hilfe eines Indlkatorfilms
# Zu einer nomogenen Masse werden verarbeitet: • 5 ml einer wäßrigen Lösung mit 0,5 M Kaliumphosphat und • 0,05 M Magnesiumchlorid, pH 7,3 . • 0,13 g Natriumalginat • 8 g einer 50 %igen Dispersion von Polyvinylpropionat • 10 g Kieselgel • 12 ml Wasser • 0,4 g Triton X-100 • 50 mg Resorufin-ß-D-galactopyranosid, in 5 ml Methanol gelöst.
# Diese Masse wird auf eine 0,1 mm starke Polycarbonatfolie (poKalon, Fa. Lonza) mit einer Spaltbreite von 0,2 mm aufgetragen. Die Beschichtung wird bei 50° C getrocknet und danach in Stücke von 6 auf 6 mm geschnitten. Diese werden mit Hilfe von Klebeband auf eine 400 um starke Polystyrolfolie aufgeklebt.
# Die so erhaltenen Teststreifen werden kurze Zeit in die zu prüfende, ß-D-Galactosidase enthaltende Lösung getaucht. […] Mit Hilfe von Testlösungen mit einem bestimmten, bekannten ß-D-Galactosidase-Gehalt kann man eine Farbskala erhalten, anhand derer der unbekannte Genalt an ß-D-Galactosidase in einer Probe ermittelt werden kann.
# ß-D-Galactosidase [3] = molecular target: T2, ß-D-Galactosidase; assay: Determination of ß-D-Galactosidase activity, photometric at 579 nm (Beispiel 18); set-up: purchased; conditions: Extinktionsanstieg pro Zeiteinheit, 950 ul Reagens + 50 ul Enzymlösung (ca. 0,08 U/ml), 37° C, pH 7,3, substrate 0,8 / 3,5 / 1,0 mmol/l in Reagens 1 / 2 / 3
# Text: Bestimmung der Aktivität der ß-D-Galactosidase
# In der vorstehend beschriebenen Pufferlösung werden 0,8 mmol/1 Resorufin-ß-D-galactopyranosid gelöst.
# In der vorstehend beschriebenen Pufferlösung werden 3,5 mmol/1 Resorufin-9-carbonsäure-ß-D-galactopyranosid gelöst.
# In der vorstehend beschriebenen Pufferlösung werden 1,0 mmol/1 Resorufin-9-carbonsäuremethylester-ß-D-galactopyranosid gelöst.
# Handelsübliche ß-D-Galactosidase aus Escherichia coli wird in der vorstehend genannten Pufferlösung gelöst. Die AKtivität dieser Lösung beträgt ca. 0,08 U/ml (bezogen auf die Hersteller-Angaben).
# Die Messung erfolgt photometrisch bei 579 nm.
# 950 ul Reagens werden in einer 1-cm-Küvette bei 37° C mit 50 ul Enzymlösung vermischt. Als Maß für die Reaktion wird der Extinktionsanstieg pro Zeiteinneit in [mExt/min] ermittelt. Er wird berechnet aus der gemessenen Extinktion durch Division mit der ReaKtionszeit.
compound,measurement,setting,value
"O=c1ccc2nc3ccc(OC4OC(CO)C(OC5OC(CO)C(OC6OC(CO)C(OC7OC(CO)C(OC8OC(CO)C(OC9OC(CO)C(OC%10OC(CO)C(O)C(O)C%10O)C(O)C9O)C(O)C8O)C(O)C7O)C(O)C6O)C(O)C5O)C(O)C4O)cc3oc-2c1 (stereo not drawn) [Beispiel 17, Resorufin-maltoheptaosid]",Rotfärbung,α-Amylase,deutlich sicntbare Rotfärbung
"OC[C@H]1O[C@@H](O[C@H]2[C@H](O)[C@@H](O)C(O)O[C@@H]2CO)[C@H](O)[C@@H](O)[C@H]1O (stereo partly drawn) [Lactose, reference compound]",Hemmung dieser Hydrolyse,ß-D-Galaktosidase; inhibition of the hydrolysis of Resorufin-ß-D-galactopyranosid by the natural substrate,kompetitiv
"O=c1ccc2nc3ccc(O[C@@H]4O[C@H](CO)[C@H](O)[C@H](O)[C@H]4O)cc3oc-2c1 [Reagens 1, Resorufin-ß-D-galactopyranosid]","Extinktionsanstieg pro Zeiteinheit, Reaktion mit der freien ß-D-Galactosidase",freie ß-D-Galactosidase,85 mExt/min
same,"Extinktionsanstieg pro Zeiteinheit, Reaktion mit ß-D-Galactosidase-Antikörper-Konjugat",[1],92 mExt/min
same,Reaktionsfarbe,ß-D-Galactosidase [2],rote Reaktionsfarbe
same,Km,"ß-D-Galaktosidase; read-out: Michaelis-Konstante KM, enzymatic hydrolysis of the substrate",380 µM
same,Reaktion,ß-D-Galactosidase [3],85 mExt/min
Resorufin-1-carbonsäuremethylester [Beispiel 3],Reaktion,ß-D-Galactosidase [3],76 mExt/min
Resorufin-ß-D-glucosid [Beispiel 2],Reaktion,ß-D-Galactosidase [3],46 mExt/min

# Source: patent EP0156347A2, “Glycosides of resofurin derivatives, method for their preparation and their use in the determination of the activity of glycosidases” (BOEHRINGER MANNHEIM GMBH, priority 1984, dated 1985)
